The values below come from PubChem BioAssay AID330 (DTP/NCI, 2004).

Where “and” joins values, the source holds several entries; their conditions need not be identical. Equal values may be shown once. Toxic doses and inconclusive results are not listed.

The subject of this experiment is P388 leukemia ip, CD2F1 mice, survival T/C. Briefly: NCI In Vivo Anticancer Drug Screen. Data for tumor model P388 Leukemia (intraperitoneal) in CD2F1 (CDF1) mice. Particulars: endpoint: median survival time, higher = longer survival. Put shortly:
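Mice carrying the transplanted tumor received test compound or vehicle. Survival was recorded in each group, and the value is the treated-group measurement divided by that of the vehicle-treated control group.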

Where [1] appears, read: dose: 50.0 mg/kg/injection, schedule: Q01DX005 (ip), vehicle: saline.
Where [2] appears, read: dose: 100.0 mg/kg/injection, schedule: Q01DX005 (ip), vehicle: saline.
[3] abbreviates: dose: 200.0 mg/kg/injection, schedule: Q01DX005 (ip), vehicle: saline.
The mark [4] stands for this setting: dose: 100.0 mg/kg/injection, schedule: Q04DX003 (ip), vehicle: saline.
Setting [5] is: dose: 1.56 mg/kg/injection, schedule: Q01DX009 (ip), vehicle: water.
Where [6] appears, read: dose: 6.25 mg/kg/injection, schedule: Q01DX009 (ip), vehicle: water.
[7] abbreviates: dose: 50.0 mg/kg/injection, schedule: Q01DX009 (ip), vehicle: saline.
[8] abbreviates: dose: 100.0 mg/kg/injection, schedule: Q01DX009 (ip), vehicle: saline.
[9] abbreviates: dose: 200.0 mg/kg/injection, schedule: Q01DX009 (ip), vehicle: saline.

For `CCOC(C)(OCC)N(C)C`, the T/C reads like this: under setting [1], 101 % of control; under setting [2], 108 % of control; under setting [3], 111 % of control.
On to `C1CC2(CC3(C1)SCCS3)SCCS2`, for which the T/C runs as follows: (dose: 50.0 mg/kg/injection, schedule: Q01DX009 (ip), vehicle: Klucel (hydroxypropylcellulose) (HPC)) 94 % of control; (dose: 100.0 mg/kg/injection, schedule: Q01DX009 (ip), vehicle: Klucel (hydroxypropylcellulose) (HPC)) 101 % of control; (dose: 200.0 mg/kg/injection, schedule: Q01DX009 (ip), vehicle: Klucel (hydroxypropylcellulose) (HPC)) 101 % of control.
For the compound `C/C=C/C(O)CC1CCCCN1` (stereo unspecified), under setting [4], the T/C was 100 % of control.
As for `c1ccc(CCNC2CCc3ccccc3C2)cc1` (stereo unspecified), the T/C (dose: 50.0 mg/kg/injection, schedule: Q01DX005 (ip), vehicle: saline with Tween-80) is 93 % of control.
Turning to `BrCC[P+](c1ccccc1)(c1ccccc1)c1ccccc1`, the T/C runs as follows: under setting [5], 115 % of control; (dose: 3.0 mg/kg/injection, schedule: Q01DX009 (ip), vehicle: water) 120 % of control; under setting [6], 118 % of control.
On to `Nc1cc2c(c[n+](CCC[n+]3cc4c5ccccc5c(N)cc4c4ccccc43)c3ccccc23)c2ccccc12`, for which the T/C is, setting by setting: (dose: 3.13 mg/kg/injection, schedule: Q04DX003 (ip), vehicle: other) 94 % of control; (dose: 6.25 mg/kg/injection, schedule: Q04DX003 (ip), vehicle: other) 102 % of control; (dose: 12.5 mg/kg/injection, schedule: Q04DX003 (ip), vehicle: other) 93 % of control; (dose: 25.0 mg/kg/injection, schedule: Q04DX003 (ip), vehicle: other) 92 % of control; (dose: 50.0 mg/kg/injection, schedule: Q04DX003 (ip), vehicle: other) 93 % of control; (dose: 100.0 mg/kg/injection, schedule: Q04DX003 (ip), vehicle: other) 86 % of control.
`CC(Cc1ccc(O)cc1)NCC(O)c1cc(O)cc(O)c1` (stereo unspecified): the T/C by setting is: under setting [7], 96 % of control; (dose: 66.0 mg/kg/injection, schedule: Q01DX009 (ip), vehicle: saline) 99 % of control and 87 % of control; under setting [8], 99 % of control and 100 % of control; (dose: 150.0 mg/kg/injection, schedule: Q01DX009 (ip), vehicle: saline) 91 % of control and 93 % of control; under setting [9], 112 % of control.
With `CNC1C(c2ccc(C)cc2)=NN(c2ccccc2)C1c1ccccc1` (stereo unspecified), the T/C by setting is: (dose: 100.0 mg/kg/injection, schedule: Q01DX001 (ip), vehicle: saline sonified) 100 % of control; (dose: 200.0 mg/kg/injection, schedule: Q01DX001 (ip), vehicle: saline sonified) 100 % of control; (dose: 400.0 mg/kg/injection, schedule: Q01DX001 (ip), vehicle: saline sonified) 105 % of control.
On to `CC1=C[C@H]2[C@@]3(O)[C@H](C)[C@@H](OC(=O)/C=C\c4ccccc4)[C@]4(OC(=O)/C=C\c5ccccc5)[C@H]([C@@H]3C=C(COC(=O)/C=C\c3ccccc3)C[C@]2(O)C1=O)C4(C)C`, for which the T/C was 92 % of control (dose: 0.18 mg/kg/injection, schedule: Q01DX005 (ip), vehicle: saline + alcohol); 95 % of control (dose: 0.35 mg/kg/injection, schedule: Q01DX005 (ip), vehicle: saline + alcohol); 95 % of control (dose: 0.7 mg/kg/injection, schedule: Q01DX005 (ip), vehicle: saline + alcohol); 95 % of control (dose: 1.4 mg/kg/injection, schedule: Q01DX005 (ip), vehicle: saline + alcohol); 102 % of control (dose: 2.8 mg/kg/injection, schedule: Q01DX005 (ip), vehicle: saline + alcohol).
`CN(C)c1ccc(C(c2cc3c(cc2O)OCO3)N2CCCC2)cc1` (stereo unspecified): the T/C reads like this: (dose: 60.0 mg/kg/injection, schedule: Q01DX005 (ip), vehicle: Klucel (hydroxypropylcellulose) (HPC)) 108 % of control; (dose: 120.0 mg/kg/injection, schedule: Q01DX005 (ip), vehicle: Klucel (hydroxypropylcellulose) (HPC)) 109 % of control; (dose: 240.0 mg/kg/injection, schedule: Q01DX005 (ip), vehicle: Klucel (hydroxypropylcellulose) (HPC)) 109 % of control.
For the compound `C=C1C(=O)C23C(OC(=O)CCCCC)C1CCC2C12COC3(O)C(O)C1C(C)(C)CCC2O` (stereo unspecified), the T/C runs as follows: (dose: 3.75 mg/kg/injection, schedule: Q01DX009 (ip), vehicle: saline with Tween-80) 102 % of control; (dose: 7.5 mg/kg/injection, schedule: Q01DX009 (ip), vehicle: saline with Tween-80) 105 % of control; (dose: 15.0 mg/kg/injection, schedule: Q01DX009 (ip), vehicle: saline with Tween-80) 113 % of control; (dose: 30.0 mg/kg/injection, schedule: Q01DX009 (ip), vehicle: saline with Tween-80) 104 % of control.
As for `CC(C)CC(C(=O)O)N1C(=O)C=CC1=O` (stereo unspecified), the T/C is, setting by setting: (dose: 12.5 mg/kg/injection, schedule: Q01DX009 (ip), vehicle: Klucel (hydroxypropylcellulose) (HPC)) 93 % of control; (dose: 25.0 mg/kg/injection, schedule: Q01DX009 (ip), vehicle: Klucel (hydroxypropylcellulose) (HPC)) 107 % of control.
On to `CCCC(CCC)=NCCN=C(CCC)CCC`, for which the T/C under setting [7] is 100 % of control; the T/C (dose: 50.0 mg/kg/injection, schedule: Q04DX003 (ip), vehicle: saline) is 95 % of control; the T/C under setting [8] was 100 % of control; the T/C under setting [4] is 95 % of control; the T/C under setting [9] was 104 % of control; the T/C (dose: 200.0 mg/kg/injection, schedule: Q04DX003 (ip), vehicle: saline) is 91 % of control.
For `CCCCOP(O)(=S)OCCCC.[Gd]`, the T/C is, setting by setting: (dose: 25.0 mg/kg/injection, schedule: Q01DX009 (ip), vehicle: saline with Tween-80) 92 % of control; (dose: 50.0 mg/kg/injection, schedule: Q01DX009 (ip), vehicle: saline with Tween-80) 87 % of control and 98 % of control; (dose: 200.0 mg/kg/injection, schedule: Q01DX009 (ip), vehicle: saline with Tween-80) 86 % of control.
For the compound `COc1cc(/C=C2\SC(=S)N(C3CC3)C2=O)ccc1O`, the T/C runs as follows: under setting [7], 97 % of control; under setting [8], 107 % of control; under setting [9], 104 % of control and 91 % of control.
`O=C(CO)C(OC1OC(CO)C(O)C(O)C1O)C(O)C(O)CO` (stereo unspecified): the T/C is, setting by setting: under setting [1], 109 % of control; under setting [2], 97 % of control; under setting [3], 109 % of control.
On to `COc1cccc2c1C(=O)c1c(O)c3c(c(O)c1C2=O)CC(O)(/C(CO)=N/NC(=O)CCC(=O)N/N=C(\CO)C1(O)Cc2c(O)c4c(c(O)c2C(OC2CC(N)C(O)C(C)O2)C1)C(=O)c1c(OC)cccc1C4=O)CC3OC1CC(N)C(O)C(C)O1` (stereo unspecified), for which the T/C is 152 % of control (dose: 0.78 mg/kg/injection, schedule: Q01DX009 (ip), vehicle: water); 170 % of control and 196 % of control under setting [5]; 110 % of control (dose: 2.35 mg/kg/injection, schedule: Q04DX003 (ip), vehicle: water); 218 % of control and 222 % of control (dose: 3.13 mg/kg/injection, schedule: Q01DX009 (ip), vehicle: water); 114 % of control (dose: 4.7 mg/kg/injection, schedule: Q04DX003 (ip), vehicle: water); 114 % of control and 309 % of control under setting [6]. The T/C (dose: 9.4 mg/kg/injection, schedule: Q04DX003 (ip), vehicle: water) is 121 % of control and 124 % of control; the T/C (dose: 12.5 mg/kg/injection, schedule: Q01DX009 (ip), vehicle: water) is 102 % of control and 86 % of control; the T/C (dose: 18.8 mg/kg/injection, schedule: Q04DX003 (ip), vehicle: water) was 154 % of control; the T/C (dose: 37.5 mg/kg/injection, schedule: Q04DX003 (ip), vehicle: water) is 181 % of control; the T/C (dose: 75.0 mg/kg/injection, schedule: Q04DX003 (ip), vehicle: water) is 118 % of control.
With `COc1cccc2c1C(=O)c1c(O)c3c(c(O)c1C2=O)CC(O)(C(C)=O)CC3OC1CC(NC2CCOCC2)C(O)C(C)O1` (stereo unspecified), the T/C by setting is: (dose: 3.12 mg/kg/injection, schedule: Q04DX003 (ip), vehicle: water) 101 % of control; (dose: 6.25 mg/kg/injection, schedule: Q04DX003 (ip), vehicle: water) 101 % of control and 107 % of control; (dose: 12.5 mg/kg/injection, schedule: Q04DX003 (ip), vehicle: water) 102 % of control and 107 % of control; (dose: 25.0 mg/kg/injection, schedule: Q04DX003 (ip), vehicle: water) 118 % of control; (dose: 50.0 mg/kg/injection, schedule: Q04DX003 (ip), vehicle: water) 120 % of control; (dose: 200.0 mg/kg/injection, schedule: Q04DX003 (ip), vehicle: water) 111 % of control.
